How the values were obtained:
[1] = test system: H. pylori CCUG17875 binding to the Lewis b antigen; test: RIA inhibition assay: H. pylori pre-treated with product, then binding to 125I-labeled Lewis b conjugate; parameters: species or system Helicobacter pylori; details: pretreated with 2 mM for 1 hour; FIG. 1B
[2] = test system: H. pylori CCUG17875 adherence to human gastric mucosa; test: H. pylori adherence in situ to histo-sections of human gastric mucosa; assay type: cell-based, Helicobacter pylori; details: after pretreatment with 2 mM
Protocol: Pretreatment of strain CCUG 17875 with soluble Lewis b antigen, with L. curvatus fermented rye bran and with ferric quinate is shown. Here, bacterial binding to 10 different gastric surface epithelium regions were estimated (value p<0.001(***), value p<0.01(**), value p<0.05(*)).
Bacterial adherence in situ was performed as described by Falk et al., 1993. Human biopsy samples of healthy gastric tissue were obtained from the Division for Gastroenterology, Norrland University Hospital, Umea, Sweden. The biopsies were taken from the antrum part of the stomach, then they were fixed in 4% buffered formalin and finally they were embedded in paraffin wax. Sections were stained with hematoxylin and eosin following standard procedures. H. pylori were first labeled with FITC, and bacterial adherence to the gastric mucous was then analyzed by the ability of L. curvatus-fermented rye-bran to inhibit bacterial adherence to re-hydrated histo-sections of human gastric epithelial cells in situ. For comparative inhibition analyzes, H. pylori was pre-incubated with Lewis b conjugate (10 μg/mL), and fermented rye-bran (1 mL) for 1 hour at room temperature. Then, as described above, the H. pylori bacterial cells were applied to the histo-sections. […]

Row | Compound | inhibition of H. pylori binding to the Lewis b antigen [1] | adherence of strain CCUG17875 to the gastric tissue section epithelium [2]
1 | O=C(O)[C@]1(O)C[C@@H](O)[C@@H](O)[C@H](O)C1 [Quinic Acid, reference compound] | no inhibition | –
2 | Ferric Quinate | 69% | similarly much reduced
